In patent publication US4472397A, “Use of certain 1-substituted-triazolo-benzodiazepines to treat psychoses” (priority 1983, dated 1984):
“Also recorded” adds a separate entry of the source. Where two headings read alike, the source gives them in different places.

Experiments:
[1] = tested on: ^3 H-Spiroperidol binding; assay: animal or person; assay type: in vivo, Male ICR mice; settings: for activity at 50 mg/kg: Mus musculus, sc, read-out: In vivo ^3 H-Spiroperidol % of Control
Protocol: The following representative compounds were tested in an in vivo mouse ^3 H-Spiroperidol binding test.
The test procedure was as follows:
Male ICR mice weighing 20-22 g were used.
The animals were dosed with the ^3 H-Spiroperidol solution at 66 micro-Curie/kg in 0.2 ml, by the subcutaneous route. The animals were sacrificed 2 hours later and sections of the brains of the mice were removed with striata and septum and some adjacent cortex. The tissues were weighed after freezing on dry ice and dissolved in 1 ml of Protosol overnight at 35° C. The Protosol was neutralized with 80 μl of 6N hydrochloric acid and 15 ml of ACS scintillation fluid was added. All samples were then counted in a liquid scintillation counter.
A background of 25 counts per minute (CPM) was subtracted from the counts for each sample counted. The CPM/mg of the tissue was calculated and a statistical t test was used to test the significance of the value.

schizoaffective patient = assay: Treatment of a human schizoaffective patient with adinazolam (Example 2); assay type: in vivo; settings: 5 mg bid first day, 5 mg tid second day; over two days; one patient refractory to tricyclic antidepressant and stelazine
Protocol: In a human patient, adinazolam was given for two days at a dosage of 5 mg bid (twice a day) the first day and 5 mg tid (three times a day) the second day to a human schizoaffective patient suffering moodcongruent delusions and persecutory auditory hallucinations which had been refractory to four months of therapy with a tricyclic antidepressant and stelazine. The clinician serving the patient found a remarkable approximately fifty percent (50%) improvement in the patient's condition over the two days of treatment with adinazolam.

[2] = tested on: psychotic, including schizophrenic, disorders; assay: Clinical trials in human patients with psychotic, including schizophrenic, disorders (Example 3); assay type: in vivo
Protocol: Clinical trials with the lead compound, adinazolam, in the treatment of human patients for psychotic, including schizophrenic, disorders in the absence of depression are in progress. […] Patients are being maintained on dosages of from 2.5 to 20 mg. of adinazolam qid (four times a day).
In one patient extrapyramidal side effects persisting from previous medication disappeared with adinazolam therapy.

serum prolactin = assay: Serum prolactin levels in open-label depression studies; assay type: in vivo, human
Text: (Three of the patients had been treated recently with a phenothiazine or amoxapine).

[3] = tested on: intractable psychosis or schizoaffective illnesses; assay: Preliminary clinical trials in human patients with intractable psychosis or schizoaffective illnesses; assay type: in vivo; settings: small, but effective and safe dosage amounts
acute psychosis = settings: cited from earlier work
[4] = Dose 50 mg/kg, subcutaneous, one hour before ^3 H-Spiroperidol, sacrificed 2 hours later

CN1CCN(c2nnc3n2-c2ccc(Cl)cc2C(c2ccccc2)=NC3)CC1 [Compound 2, 8-chloro-1-(4-methyl-1-piperazinyl)-6-phenyl-4H--s-triazolo[4,3-a][1,4]benzodiazepine]
In vivo ^3 H-Spiroperidol % of Control ([1]; Dose 50 mg/kg, subcutaneous, one hour before ^3 H-Spiroperidol, sacrificed 2 hours later, 50 mg/kg): 73% | activity at 50 mg/kg [1, 4]: 69%

CN(C)CCc1nnc2n1-c1ccc(Cl)cc1C(c1ccccc1)=NC2 [Compound 3, 8-chloro-1-[2-(dimethylamino)ethyl]-6-phenyl-4H--s-triazolo[4,3-a][1,4]benzodiazepine]
activity at 50 mg/kg [1, 4]: 78%

CN(C)Cc1nnc2n1-c1ccc(Cl)cc1C(c1ccccc1)=NC2 [Compound 1, 8-chloro-1-[(dimethylamino)methyl]-6-phenyl-4H--s-triazolo[4,3-a][1,4]-benzodiazepine]
activity at 50 mg/kg [1]: 82% | Activity in the ^3 H-Spiroperidol binding test (in words) ([1]; animals, in vivo, listed as adinazolam): active; also recorded: weak but suggested antipsychotic-like activity | improvement in the patient's condition (schizoaffective patient): ~50% | improvement of patients ([2]; five patients, 2.5 to 20 mg qid, absence of depression): all experienced moderate or marked improvement | extrapyramidal side effects persisting from previous medication ([2]; one patient): disappeared | effect of unintentional withdrawal of medication ([2]; one patient, medication withdrawn for 24 hours): reverted to a psychotic condition | effect of reinitiated therapy ([2]; one patient, reinitiated in the morning after 24 hour withdrawal, that same day): became lucid again that same day | prolactin levels in patients with elevated prolactin at introductory screening (serum prolactin; four patients (2 males; 2 females), three recently treated with a phenothiazine or amoxapine): the prolactin levels in all four patients normalized | effect on serum prolactin levels (serum prolactin; open-label depression studies): no apparent elevating effect on serum prolactin levels | symptoms of schizophrenia and affective improvement [3]: improved symptoms of schizophrenia and affective improvement

CN1CCN(c2nnc3n2-c2ccccc2C(c2ccccc2Cl)=NC3)CC1 [Compound 6, 1-(4-methyl-1-piperazinyl)-6-(2-chlorophenyl)-4H--s-triazolo[4,3-a][1,4]benzodiazepine]
activity at 50 mg/kg [1, 4]: 65%

CN1CCN(c2nnc3n2-c2ccccc2C(c2ccccc2)=NC3)CC1 [Compound 4, 1-(4-methyl-1-piperazinyl)-6-phenyl-4H--s-triazolo[4,3-a][1,4]benzodiazepine]
activity at 50 mg/kg [1, 4]: 59%

CC1NC(c2ccccc2)c2cc(Cl)ccc2-n2c1nnc2N1CCN(C)CC1 (stereo not shown) [Compound 5, 8-chloro-1-(4-methyl-1-piperazinyl)-4-methyl-5,6-dihydro-6-phenyl-4H--s-triazolo[4,3-a][1,4]benzodiazepine]
In vivo ^3 H-Spiroperidol % of Control [1, 4]: 89%

CCN1CCN(c2nnc3n2-c2ccccc2C(c2ccccc2Cl)=NC3)CC1 [Compound 7, 1-(4-ethyl-1-piperazinyl)-6-(2-chlorophenyl)-4H--s-triazolo[4,3][1,4]benzodiazepine]
activity at 50 mg/kg [1, 4]: 72%

CN1C(=O)CN=C(c2ccccc2)c2cc(Cl)ccc21 [diazepam]
effectiveness versus haloperidol in acute psychosis (acute psychosis; over 24 hours of treatment): at least as effective as haloperidol | sedation effects (acute psychosis; treatment of acute psychosis): marked sedation effects
